Reference: publication PMC10363480 (Plant Communications, 2023)

Each sequence was assayed on mitochondria or chloroplast of Chlamydomonas reinhardtii (assay: Subcellular localization of Venus reporter by epifluorescence microscopy (manual targeting assignment)). Settings: C-terminal element of CAG2-mTP added to the named peptide; Figure 2 rows C and D; bare name = K and R versions.
Format: cell-based
Outline: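 Targeting peptide variants fused to Venus reporter, transformed into Chlamydomonas wild-type T222+ (CC-5101); three independent transformant lines per construct. Localization assigned manually from epifluorescence images using chlorophyll autofluorescence for chloroplast and 0.1 μM MitoTracker Red CMXRos (30 min) for mitochondria. Automated segmentation used for validation.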

Sequence	mitochondrial targeting upon addition of mTP-C (P^m)
SFLTTFKDLAIKAAKSAGQSVLSTLSCKLSNTC [B2I, brevinin-2ISb, HA-RAMP antimicrobial peptide, reference compound]	continued targeting

Same assay, conditions: C-terminal element of RCA1-cTP added; Figure 2 rows E and F

Sequence	mitochondrial localization upon addition of cTP-C (P^c)
SFLTTFKDLAIKAAKSAGQSVLSTLSCKLSNTC [B2I, brevinin-2ISb, HA-RAMP antimicrobial peptide, reference compound]	compatible with mitochondrial localization

Same assay, conditions: manual targeting assignment of the Venus reporter construct in Chlamydomonas: Neither / Mitochondria / Chloroplast / Dual, (partial) = partial targeting

Sequence	Localisation
MQVTMKSSAVSGQRVSFLTTFRDLAIRAARSAGQSVLSTLSCRLSNTCSVRRAQLQVVASSRKQMGRWRSIDAGVDASDDQ [c.B2I.R.c]	Chloroplast
MQVTMKSSAVSGQRVMLKRVGQSLVPFARAGSVRRAQLQVVASSRKQMGRWRSIDAGVDASDDQ [c.MH.R.c]	Chloroplast
MQVTMKSSAVSGQRVGGARVATRSVRRAQLQVVASSRKQMGRWRSIDAGVDASDDQ [c.CH.R.c]	Chloroplast
MGGAKVATK [CH.K]	Neither
MQVTMKSSAVSGQRVMLKRVGQSLVPFARAG [c.MH.R]	Neither
MALWRTMLRRLGTMALHAGRAAFGAAADTISQSVRRAQLQVVASSRKQMGRWRSIDAGVDASDDQ [DDM.R.c]	Neither
MQVTMKSSAVSGQKVGGAKVATKSVKKAQLQVVASSKKQMGKWKSIDAGVDASDDQ [c.CH.K.c]	Chloroplast (partial)
MGGARVATRLTQTAESFRGVSSQFFDAPNGPSVKQVLIEDEW [CH.R.m]	Neither
MRYYGNGVSCNRRGCSVDWGRAIGIIGNNAAANLTTGGRAGWRG [EHF.R]	Neither

Same assay, conditions: peptide inserted upstream of Venus, stable Chlamydomonas lines, epifluorescence, MitoTracker / chlorophyll / pyrenoid co-localization, three independent insertion lines

Sequence	organelle targeting (Venus reporter localization) by the construct as labelled
SFLTTFKDLAIKAAKSAGQSVLSTLSCKLSNTC [B2I, brevinin-2ISb, HA-RAMP antimicrobial peptide, reference compound]	mitochondrial localization

Same assay, conditions: peptide-Venus reporter construct expressed in Chlamydomonas reinhardtii; manual targeting assignment (Neither / Mitochondria / Chloroplast / Dual; partial = partial targeting)

Sequence	Localisation
MQVTMKSSAVSGQRVMVNYGNGVSCSKTKCSVNWGIITHQAFRVTSGVASG [c.B15.K]	Neither
MGIGRFLHSARRFGRAFVGEIMNSSVRRAQLQVVASSRKQMGRWRSIDAGVDASDDQ [MII.R.c]	Mitochondria
MQVTMKSSAVSGQRVMWLSRTARRLENSARRRISEGIAIAIRGGSRSVRRAQLQVVASSRKQMGRWRSIDAGVDASDDQ [c.CP3.R.c]	Chloroplast
MWLSRTARRLENSARRRISEGIAIAIRGGSR [CP3.R]	Mitochondria (partial)
MGIGKFLHSAKKFGKAFVGEIMNSLTQTAESFRGVSSQFFDAPNGPSVKQVLIEDEW [MII.K.m]	Mitochondria (partial)
MFLPLLAGLAANFLPKIFCKITRKC [B1E.K]	Neither

Same assay, conditions: targeting of the Venus reporter fused to the peptide, expressed in Chlamydomonas reinhardtii; manual assignment from epifluorescence microscopy; full or partial

Sequence	Localisation
MQVTMKSSAVSGQRVMSFLTTFKDLAIKAAKSAGQSVLSTLSCKLSNTCSVRRAQLQVVASSRKQMGRWRSIDAGVDASDDQ [c.B2I.K.c]	Chloroplast (partial)
MGWIRDFGKRIERVGQHTRDATIQTIAVAQQAANVAATLKGSVRRAQLQVVASSRKQMGRWRSIDAGVDASDDQ [S1D.K.c]	Chloroplast
MQVTMKSSAVSGQRVMGLFSKFNKKKIKSGLIKIIKTAGKEAGLEALRTGIDVIGCKIKGECLTQTAESFRGVSSQFFDAPNGPSVKQVLIEDEW [c.E1S.K.m]	Chloroplast
MQVTMKSSAVSGQRVMKYYGNGVSCNKKGCSVDWGKAIGIIGNNAAANLTTGGKAGWKGLTQTAESFRGVSSQFFDAPNGPSVKQVLIEDEW [c.EHF.K.m]	Chloroplast
MQVTMKSSAVSGQRVNIVVYWNFTLWHMDINARNAGCDGEGSLTQTAESFRGVSSQFFDAPNGPSVKQVLIEDEW [c.RP1.K.m]	Neither
MQVTMKSSAVSGQRVDEVNNDNCRIKFKGDISSESDKMNINYLTQTAESFRGVSSQFFDAPNGPSVKQVLIEDEW [c.RP2.K.m]	Neither
MQVTMKSSAVSGQRVMWLSRTARRLENSARRRISEGIAIAIRGGSRLTQTAESFRGVSSQFFDAPNGPSVKQVLIEDEW [c.CP3.R.m]	Neither
MGLLLDTLKGAAKDIAGIALEKLKCKITGCKPLTQTAESFRGVSSQFFDAPNGPSVKQVLIEDEW [R2G.K.m]	Mitochondria (partial)
MQVTMKSSAVSGQRVMGLFSKFNKKKIKSGLIKIIKTAGKEAGLEALRTGIDVIGCKIKGEC [c.E1S.K]	Neither
MQVTMKSSAVSGQRVMGLLLDTLKGAAKDIAGIALEKLKCKITGCKP [c.R2G.K]	Mitochondria (partial)
MQVTMKSSAVSGQRVALWMTLLRRVLRAAARAALNAVLVGANALTQTAESFRGVSSQFFDAPNGPSVKQVLIEDEW [c.DS4.R.m]	Neither
